Six compounds from paper PMC10618445, “Eucalyptus torquata L. flowers: a comprehensive study reporting their metabolites profiling and anti-gouty arthritis potential” (Scientific Reports, 2023) can be followed below.

The nature of experiment [1]: ABTS radical scavenging assay. The note with it: mean ± SD, triplicate. The method, then: DPPH radical scavenging, ABTS radical scavenging and FRAP assays were done according to Dudonne et al.[19] method minor modifications. The details are mentioned in the supplementary file. Briefly, 200 µL of the reaction mixture containing 10 µL extract/ standard at different concentrations (0.1575 - 1 mg/mL) was added to 2,2′-Azino-bis(3-ethylbenzothiazoline-6-sulfonic acid (ABTS) solution (190 µL) then measured at 734 nm in 96 well-plates. The ABTS solution was composed as follows; 5 mL of 14 mM ABTS dissolved in methanol added to 5 mL solution of 4.9 mM potassium persulfate, and subsequently stored for 16 h at room temperature in dark. This solution was diluted with methanol till the absorbance was 0.700.

The nature of experiment [2]: DPPH radical scavenging assay. As to conditions: mean ± SD, triplicate. The method, then:
DPPH radical scavenging, ABTS radical scavenging and FRAP assays were done according to Dudonne et al.[19] method minor modifications. The details are mentioned in the supplementary file. Briefly, 20 μL of the diluted concentrations of ETME/ standard (0.1575 - 1 mg/mL) were added to 200 μL of 2,2-diphenyl-1-picrylhydrazyl (DPPH) in a 96 well-plate and the absorbance was measured at 517 nm after incubation for 30 min [1] using ascorbic acid as standard. […] was determined using the equation; [(Ac – As) / Ac] × 100. In which, Ac was the control absorbance (DPPH solution without the tested sample) while As was the sample absorbance (DPPH solution in addition to the extract or standard).
(In general: Loss of DPPH colour is used to gauge radical scavenging.)

The nature of experiment [3]: Ferric reducing power assay (FRAP). The note with it: mean ± SD, triplicate. The procedure: DPPH radical scavenging, ABTS radical scavenging and FRAP assays were done according to Dudonne et al.[19] method minor modifications. The details are mentioned in the supplementary file. The ferric reducing power of the extract was determined using the method reported previously by Dudonne, et al., 2009 [1]. The reduction is monitored by measuring the change of absorbance at 593 nm. […] A standard curve was prepared using various concentrations of FeSO4 .7H2O. All solutions were used on the day of preparation. A 100 µL of the sample solution and 300 μL of deionized water were added to 3 mL of freshly prepared FRAP reagent. The reaction mixture was incubated in a water bath for 30 min at 37 °C. The difference between sample absorbance and blank absorbance was calculated and used to calculate the FRAP value. All measurements were done in triplicate and the EC50 was calculated. Ascorbic acid is used as standard.

A further experiment relates to protease. Kind of experiment: Protease (proteinase) inhibitory activity. The class given is biochemical. As to conditions: mean ± SD, triplicate. The method, then: (§1) Albumin denaturation inhibition was evaluated using the previously described method. Membrane stabilization and proteinase inhibitory potentials were evaluated using the previously reported method. Diclofenac was used as the reference drug. All the experiments were performed in triplicate.

In the next experiment the test system is red blood cell membranes. The experiment in a line: Membrane stabilization. As to conditions: mean ± SD, triplicate. The format is cell-based. The procedure:
as §1
Denaturation of tissue proteins is well documented in the pathogenesis of inflammatory events like arthritis. The protection against protein denaturation is one of NSAIDs mechanisms of action. In addition, red blood cell hemolysis inhibition may provide insights into the process of inflammation. Stabilization of the red blood cell membranes may delay or prevent the lysis and the consequent cytoplasmic contents release and the inflammatory response. So, plants that can interfere with these responses could be very useful for developing novel anti-arthritic drugs. Natural extracts from other Eucalyptus species produced similar albumin denaturation and cell membrane stabilization activities including E. obliqua leaves, E. sideroxylon bark[9] and E. globulus leaves.

A further experiment relates to U937 human monocytes. Kind of experiment: Histamine release inhibitory activity (PMA-treated cells, ELISA). The format is cell-based. As to conditions: 20 nM PMA, 1 h, mean ± SD. The method, then:
U937 human monocytes (ATCC, Manassas, VA, USA) were used to study the effect of the extract on histamine release. U937 cells (50,000 cells) were plated in a 96-well plate and treated with various concentration (1000–7.81 µg/mL) of the extract, in presence or absence of 20 nM phorbol myristate acetate (PMA) for 1 h. The cell culture supernatants collected from either untreated control or treated cultures were centrifuged at 10,000 g for 5 min at 4 °C and assessed for the released histamine by the commercially available ELISA kit. Diclofenac was used as the positive control.
For orientation: ELISA stands for enzyme-linked immunosorbent assay.

The next experiment concerns 5-lipoxygenase (5-LOX). The experiment in a line: 5-lipoxygenase inhibitory assay (lipoxygenase inhibitor screening kit). As to conditions: mean ± SD, triplicate. The format is biochemical. An excerpt: (§2) Methanol, DPPH (2,2-diphenyl-1-picrylhydrazyl), ABTS (2,2′-Azino-bis (3-ethylbenzothiazoline-6-sulfonic acid)), TPTZ (2,4,6-tri(2-pyridyl)-s-triazine), ascorbic acid, hyaluronic acid (human umbilical cord), sodium hydroxide, hyaluronidase (bovine testes), calcium chloride, p-dimethylaminobenzaldehyde (PDMAB), and sodium borate were purchased from Sigma-Aldrich (USA). COX (ovine) and LOX inhibitor screening assay kits (Cayman Chemical Company, MI, USA), 96-well cell culture plate (Corning Life Sciences, Lowell, MA, USA), PMA (Sigma-Aldrich, St. Luis, MO, USA), and histamine release assay kit (SPI-Bio, France) were used.
The COX inhibitory activity was assayed using Cayman colorimetric COX (ovine) inhibitor screening assay kit, according to the manufacturer’s instructions. The selectivity index (S.I.) was then calculated as IC50 (COX-1)/IC50 (COX-2). In vitro 5-lipoxygenase (5-LOX) inhibitory assay was carried out using lipoxygenase inhibitor screening assay kit, according to the manufacturer’s instructions. Diclofenac sodium was used as a reference drug.

For a further experiment, the system named is tyrosinase. Kind of experiment: Tyrosinase inhibition assay with L-DOPA as substrate. As to conditions: mean ± SD. The class given is biochemical. The method, then:
Tyrosinase inhibition assay was performed with L-DOPA as substrate adopting the previously described method. Detailed procedures are described in the supplementary file.
Tyrosinase inhibition assay was performed with L-DOPA as substrate adopting the method reported in [3]. In a 96-plate, 685 μL of phosphate buffer (0.05 M, pH 6.5), 15 μL of tyrosinase enzyme (2500 U /mL), 200 μL of ETME (7.81–1000 µg/mL) and 100 μL of 5 mM/L L-DOPA were added. The absorbance was immediately monitored at 492 nm. Kojic acid was used as the positive control. The assay was made in triplicate. The percentage inhibition was calculated as follows: % of inhibition = (Acontrol/Atested sample)/ Acontrol) x 100. Where, Acontrol is the absorbance without the addition of the inhibitor and Asample is the absorbance after adding the standard.

A further experiment concerns the target xanthine oxidase (XO) (Bos taurus, UniProt P80457). The experiment in a line: Xanthine oxidase (XO) inhibitory activity. The format is biochemical. The note with it: mean ± SD, triplicate; read-out: Xanthine oxidase IC50/EC50 (converted). The method, then:
The XO inhibitory activity was assayed following the protocol reported in[22]. Detailed procedures are described in the supplementary file. The XO inhibitory activity was assayed following the protocol reported in [2]. Five hundred µL of different concentrations of ETME/ standard (10- 100 µg/mL) were added to the enzyme solution (1.3 mL of phosphate buffer at concentration of 65 mM and pH 7.4 containing 0.28 U/mL of XO). Then the mixture was incubated for 10 min at 30 ℃. Next, 1.4 mL of the substrate xanthine (0.6 mM) was added to the mixture. The absorbance was measured at every minute for 10 min at 295 nm. Allopurinol was used as the standard drug. The percentage inhibition of XO was calculated as: % inhibition = (1 – Absorbance of sample/ Absorbance of blank) x 100. The IC50 value was calculated from the calibration curve.

The subject of experiment [4] is hyaluronidase (bovine testes). The experiment in a line: Hyaluronidase inhibitory activity. As to conditions: mean ± SD, triplicate. The class given is biochemical.
From the text: as §2
Hyaluronidase inhibitory activity of ETME was evaluated spectrophotometrically as reported by Perera et al.[24] with minor modifications. Detailed procedures are described in the supplementary file.
Hyaluronidase inhibitory activity of ETME was evaluated spectrophotometrically as reported by Perera et al., 2018 with minor modifications. […]. The percentage of enzyme inhibition was calculated as follows:
% of inhibition = (Acontrol/Atested sample)/ Acontrol) x 100.
Where Acontrol is the absorbance without addition of the inhibitor and Asample is the absorbance after adding the extract/standard. The IC50 value, the concentration giving 50% inhibition of hyaluronidase activity, was determined by interpolation using the concentration-response curves. […]

Chain of xanthine oxidase (XO) (P80457 whole entry): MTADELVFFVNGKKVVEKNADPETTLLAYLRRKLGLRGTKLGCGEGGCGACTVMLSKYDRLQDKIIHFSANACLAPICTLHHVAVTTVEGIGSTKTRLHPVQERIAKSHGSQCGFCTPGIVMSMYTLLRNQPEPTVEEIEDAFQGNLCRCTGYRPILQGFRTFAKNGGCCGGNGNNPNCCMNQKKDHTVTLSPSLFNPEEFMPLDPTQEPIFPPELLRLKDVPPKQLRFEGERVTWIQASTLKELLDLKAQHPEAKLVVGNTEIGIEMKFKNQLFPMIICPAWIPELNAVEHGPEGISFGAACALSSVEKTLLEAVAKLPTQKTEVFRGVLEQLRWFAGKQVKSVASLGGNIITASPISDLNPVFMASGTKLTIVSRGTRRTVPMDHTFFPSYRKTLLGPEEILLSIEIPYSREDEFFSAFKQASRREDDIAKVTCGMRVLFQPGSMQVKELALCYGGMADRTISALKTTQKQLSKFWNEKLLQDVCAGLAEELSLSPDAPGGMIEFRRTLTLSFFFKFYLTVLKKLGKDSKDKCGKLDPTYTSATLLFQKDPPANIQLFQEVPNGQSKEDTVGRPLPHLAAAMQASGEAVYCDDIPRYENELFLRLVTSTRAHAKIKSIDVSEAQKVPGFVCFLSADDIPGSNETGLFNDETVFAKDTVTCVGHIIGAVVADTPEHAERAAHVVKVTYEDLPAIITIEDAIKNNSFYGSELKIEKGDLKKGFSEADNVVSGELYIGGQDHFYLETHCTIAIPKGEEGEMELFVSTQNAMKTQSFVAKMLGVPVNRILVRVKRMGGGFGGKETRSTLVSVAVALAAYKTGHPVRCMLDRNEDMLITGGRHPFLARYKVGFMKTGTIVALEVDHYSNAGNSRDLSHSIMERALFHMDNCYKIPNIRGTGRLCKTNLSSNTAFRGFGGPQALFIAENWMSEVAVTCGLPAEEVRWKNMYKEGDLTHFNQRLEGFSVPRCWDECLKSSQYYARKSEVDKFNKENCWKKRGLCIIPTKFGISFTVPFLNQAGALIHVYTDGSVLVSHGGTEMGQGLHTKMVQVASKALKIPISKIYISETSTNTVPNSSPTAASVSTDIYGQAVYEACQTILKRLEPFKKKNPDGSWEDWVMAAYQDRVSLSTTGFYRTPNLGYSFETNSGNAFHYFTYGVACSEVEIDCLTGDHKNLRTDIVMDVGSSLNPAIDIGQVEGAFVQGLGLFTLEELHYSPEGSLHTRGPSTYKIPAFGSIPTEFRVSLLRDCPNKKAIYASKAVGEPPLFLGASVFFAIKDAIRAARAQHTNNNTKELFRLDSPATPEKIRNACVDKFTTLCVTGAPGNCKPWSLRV

Regarding `O=C1O[C@H]([C@@H](O)CO)C(O)=C1O` [Ascorbic acid, ascorbic acid], the “ABTS IC50/EC50” value in experiment [1] was 21.4 ± 1.6 µg/mL. Also, the “DPPH IC50/EC50” value in [2] was determined as 2.2 ± 1.6 µg/mL. Moreover, in experiment [3], the “FRAP IC50/EC50” value is 3.9 ± 1.9 µg/mL.
For `O=C(O)Cc1ccccc1Nc1c(Cl)cccc1Cl` [Diclofenac], the “Protease IC50/EC50” value with protease amounted to 25.14 ± 1.2 µg/mL. The “Membrane stabilization IC50/EC50” value in the experiment on red blood cell membranes was found to be 17.02 ± 1.3 µg/mL. Besides, in the experiment with U937 human monocytes, the “Histamine release IC50/EC50” value came to 17.94 ± 1.4 µg/mL.
For the compound `COc1ccc2c(c1)c(CC(=O)O)c(C)n2C(=O)c1ccc(Cl)cc1` [Indomethacin], the “LOX IC50/EC50” value in the experiment on 5-lipoxygenase (5-LOX) is given as 23.4 ± 0.83 µg/mL.
On to `O=c1cc(CO)occ1O` [Kojic acid], for which the “Tyrosinase IC50/EC50” value with tyrosinase stood at 52.0 ± 0.98 µg/mL.
On to `O=c1[nH]c(=O)c2c[nH]nc2[nH]1` [Oxypurinol], for which the IC50 at xanthine oxidase (XO) is 96.6 µM.
`O=C([O-])CC([S-])C(=O)[O-].[Au+].[Na+].[Na+]` (stereo not shown) [Sodium aurothiomalate]: in experiment [4], the “Hyaluronidase IC50/EC50” value was 20.03 ± 0.96 µg/mL.
